A short description of the series: Human HepG2 cell viability assay in 384 well format. Format: toxicity, cell-based. More on the design: dose 125 nL, time 70.5 hour; concentration not given beside the values. As to conditions: HepG2 cells, read-out: Inhibition.
As to `CCn1ccnc1CN1CCN(CC(O)c2ccccc2)CC1` (stereo not drawn), the cytotoxicity at 70.5 h is -15.4%. Then `Cc1cccc(C(=O)N2CCCC2c2c(C)n[nH]c2C)c1` (stereo not drawn), with -2.31%. `O=C(N1CCN(c2ccccc2O)CC1)C1(O)Cc2ccccc2C1`: the cytotoxicity at 70.5 h turned out to be 0.667%.

Regarding `CC(C)=CCN1CCN(C(=O)C2CCS(=O)(=O)C2)CC1` (stereo not drawn), the cytotoxicity at 70.5 h came to 0.157%.

Regarding `CN1CCC2(CCN(C(=O)c3cccnc3)C2)C1` (stereo not drawn), the cytotoxicity at 70.5 h was 0.955%. On to `COC(=O)c1ccc(S(=O)(=O)NC2CNC(=O)C2)cc1` (stereo not drawn), for which the cytotoxicity at 70.5 h was 0.76%. Consider `Cc1cc(C)cc(NCCC(=O)NC2CCN(C(=O)C3CC3)CC2)c1`, for which the cytotoxicity at 70.5 h was -2.45%. Then `O=C(O)c1cc(-n2cc3c(n2)CCC3)cc(S(=O)(=O)NC2CCCC2)c1`, with 26.3%; and `COc1ccc(F)c(CN2CCCC(O)(CNCc3ncc[nH]3)C2=O)c1` (stereo not drawn), with -5.99%; and `CC(Cn1cncn1)NC1CCN(Cc2cccc(O)c2)CC1` (stereo not drawn), with -2.81%. As to `CN1C[C@@H](C(=O)NC(C)(C)C)[C@@]2(CCc3ccccc3C(=O)N2)C1`, the cytotoxicity at 70.5 h worked out at 0.823%. With `O=C(NCc1nccn1CCc1ccccc1)NCC1CCC1` the figure was 2.35%. `CC(=O)N1CCC2(CCN(C(=O)c3ccc(Cl)c(C(F)(F)F)c3)C2)C1` (stereo not drawn): the cytotoxicity at 70.5 h was -11%. With `Cc1nc(NC2CCCC2)cc(C2CCN2C(=O)c2ccccc2)n1` (stereo not drawn) the figure was 14.2%; with `O=C(CC1CCCC1)N1C[C@@H]2CCN(c3cccnc3)C[C@@H]2C1`, -7.38%. Then `COc1cc(CO)ccc1OCc1nc(C(C)C)no1`, with -3.56%. Then `CC(NCc1ccc(F)cc1)c1ccc(S(C)(=O)=O)cc1` (stereo not drawn), with -7.76%; and `Cc1noc(CS(=O)(=O)C(C)C(=O)N(C)c2ccccc2)n1` (stereo not drawn), with -23.3%. Regarding `NC(=O)Nc1cccc(CNC(=O)CCCOCc2ccccc2)c1`, the cytotoxicity at 70.5 h came to 2.63%.

Regarding `Cc1noc(C)c1CN1CC2(CCN(C(=O)c3cccn3C)C2)CC1=O` (stereo not drawn), the cytotoxicity at 70.5 h is -8.3%. Regarding `CCOCC(O)CN1CCN(C(=O)c2cccc3[nH]ncc23)CC1` (stereo not drawn), the cytotoxicity at 70.5 h is -4.87%. Then `O=C1CCC2(CCCN(C(=O)c3ccccn3)CC2)N1` (stereo not drawn), with -1.45%; and `CCN(CC)CCn1cc(NC(=O)Nc2ccccc2OC)cn1`, with -11.6%; and `O=C(c1ccncc1F)N1CCOC(c2cccc(O)c2)C1` (stereo not drawn), with 2.22%. With `COC1CCN(CC(=O)NCc2ccc(OCC(N)=O)cc2)CC1` the figure was 0.0627%; with `COCCNC(=O)c1cc(C(C)C)nc(N2CCCCC2)n1`, -9.32%; with `CO[C@@H]1CN(c2ccccc2)S(=O)(=O)[C@@]12CCN(Cc1ccccc1)C2`, -1.84%.

For the compound `Cc1cccc(CN2CC[C@@H]3[C@@H]2CCN3C(=O)c2cnoc2C)n1`, the cytotoxicity at 70.5 h amounted to 0.0209%. Then `O=C(NCc1cccnc1)[C@H]1CC[C@@H]2[C@@H](CCN2c2ncccn2)O1`, with -6.01%; and `Cc1noc([C@]23COC[C@H]2CN(C(=O)Cc2ccsc2)C3)n1`, with -2.9%.

For `OCC1CCCCN1Cc1cc(O)c2cccc(F)c2n1` (stereo not drawn), the cytotoxicity at 70.5 h turned out to be 20.1%. On to `CC(=O)N1CCN(Cc2coc(-c3cccc(F)c3)n2)CC1`, for which the cytotoxicity at 70.5 h was -19.9%.

Regarding `CC(C)c1cc(C(=O)N2CCNCC2C(=O)NCc2ccncc2)on1` (stereo not drawn), the cytotoxicity at 70.5 h was -2.19%. With `CN1CCN(c2ccccc2NC(=O)NCCc2ccccc2)CC1` the figure was -5.11%; with `CS(=O)(=O)CCC(=O)N(CCc1cccc(F)c1)C1CC1`, -11.4%; with `CCCC(=O)NCc1cccc(C(=O)OC)c1`, -9.06%. Then `O=C(NCc1cc[nH]n1)NCC(c1ccccc1)N1CCOCC1` (stereo not drawn), with 8.77%. With `COCCC1CCCCN1Cc1nc(Cc2cccc(F)c2)no1` (stereo not drawn) the figure was -2.75%; with `CS(=O)(=O)N1CCO[C@@H]2CN(C(=O)N3CCOCC3)CC[C@@H]2C1`, -6.09%. As to `CCC(C)N1CCc2nc(N3CCCC3)nc(NC(C)C)c2C1` (stereo not drawn), the cytotoxicity at 70.5 h was -7.15%.

Take `CN(C)c1cc(C2CCCN(C(=O)c3noc4c3CCCC4)C2)ccn1` (stereo not drawn): the cytotoxicity at 70.5 h is -1.31%. Take `c1ccc(COC[C@@H]2CC[C@H]3[C@H](CCN3c3ncccn3)O2)nc1`: the cytotoxicity at 70.5 h is -9.8%.

Consider `O=C(Nc1cc(F)ccc1OCC1CCCO1)c1ccoc1` (stereo not drawn), for which the cytotoxicity at 70.5 h is -2.66%. Consider `CCSc1cc(C(=O)NCCNC(=O)Cc2ccccc2)ccn1`, for which the cytotoxicity at 70.5 h was -117%. Then `COCCC(=O)N1CCC(C(=O)c2cc(C)cnc2N)CC1`, with -8.64%; and `O=C(CC1CN(Cc2ccccc2)CCO1)Nc1ccccc1F` (stereo not drawn), with -3.6%; and `CCOCC1CN(Cc2ccco2)Cc2ccnn2C1` (stereo not drawn), with -5.17%. With `CC(C)c1nn(C)c(Cl)c1CNCc1ccc(N(C)C)nc1` the figure was -2.07%; with `COC(=O)C(C)CN(Cc1ccccc1)C(=O)CN1CCCNC1=O` (stereo not drawn), -0.248%; with `CCN(c1ccsc1C(=O)N1CCCCC1)S(=O)(=O)c1ccccc1`, -11.9%. Consider `Cc1cc(C)n(C2CN(c3nc(N)nc4c3CCCC4)C2)n1`, for which the cytotoxicity at 70.5 h is -16.5%. With `CNc1snc(C)c1C(=O)NC(C)CC(=O)c1cccs1` (stereo not drawn) the figure was -14.5%; with `CN(CCC(N)=O)Cc1cc(Br)cs1`, -19.7%. Regarding `COc1cccc(CN2CCC(c3cc(O)nc(C)n3)C2)c1` (stereo not drawn), the cytotoxicity at 70.5 h is -3.89%. In the case of `Cc1nc2ccnn2c(C)c1CCC(=O)N1CCN(C2CC2)CC1`, the cytotoxicity at 70.5 h came to 15.8%. With `Cc1cnn(CC2CCCCN2Cc2nc(N)c3ccccc3n2)c1` (stereo not drawn) the figure was -6.17%. Then `CCN(CC)C(=O)Cn1cc(-c2nc(-c3ccccc3C)no2)nn1`, with -9.94%; and `CC(C#N)CNS(=O)(=O)c1ccc(F)c(Br)c1` (stereo not drawn), with -7.42%. Then `COc1ccc(OC)c(C(O)CN2CCN(c3cccc(C)c3)CC2)c1` (stereo not drawn), with 7.32%; and `CN(Cc1cnccn1)C(=O)c1ccc(CSc2nnc[nH]2)o1`, with -20.7%; and `O=C(NC1COC2(CCN(Cc3ccccn3)CC2)C1)c1ccccn1` (stereo not drawn), with 3.59%. Consider `Cc1cccnc1CNCC1(O)CCCN(Cc2ccc(F)cc2)C1=O` (stereo not drawn), for which the cytotoxicity at 70.5 h is 23.1%. Turning to `CCCS(=O)(=O)N1CCN(c2cc(-n3cnc(C)c3C)ncn2)CC1`, the cytotoxicity at 70.5 h was 2.79%. With `CSC(C)(C)CNC(=O)NC1CCC1` the figure was -1.66%; with `CCCSCC(=O)Nc1ncn(CC(=O)N2CCCCCC2)n1`, -1.09%. In the case of `Cc1noc2ncc(C(=O)NCC3CCCOC3)cc12` (stereo not drawn), the cytotoxicity at 70.5 h is -8.17%. `O=C([C@H]1COC[C@H]2CN(c3ccncn3)C[C@H]21)N1CCCC1`: the cytotoxicity at 70.5 h was determined as 13.9%. Then `CCC(C)(C)NC(=O)c1nnn(-c2cccc3c2CCN(C)C3)c1C`, with 9.39%; and `CNC(=O)c1cc(C)ccc1NCc1cn2cc(C)ccc2n1`, with -2.87%; and `COC(=O)C(NC(=O)c1ccc(NC2CC2)nc1)c1ccccc1` (stereo not drawn), with -5.38%. Turning to `CCCc1cc(NCCN2CCNC2=O)n2nccc2n1`, the cytotoxicity at 70.5 h is -11.5%. Then `CC(C)N(C)Cc1cnc2n1CCN(Cc1cccc(C#N)c1)C2`, with -13.7%. Then `CC1CCC(NS(=O)(=O)CC(=O)NC(C2CC2)C2CC2)CC1` (stereo not drawn), with 23.5%. As for `CC(NC(=O)COc1ccc(F)cc1)c1nnc2n1CCCCC2` (stereo not drawn), the cytotoxicity at 70.5 h was -4%. In the case of `Cc1cc(C)n2nc(C(=O)N3CCCC4(CCOC4)C3)cc2n1` (stereo not drawn), the cytotoxicity at 70.5 h is -10.3%. With `O=C(NC[C@H]1OC[C@@H](NC(=O)c2ccccc2)[C@@H]1O)c1ccncc1` the figure was -0.603%; with `COc1c(CNCc2ccccc2CO)c(C)nn1C`, -5.09%.

Regarding `Cc1cn2c(n1)CCC(NC(=O)c1nc(C)ncc1Cl)C2` (stereo not drawn), the cytotoxicity at 70.5 h was -8.31%. On to `CN(C)CCNC(=O)c1sc2ccccc2c1C1CCC(CN)CC1` (stereo not drawn), for which the cytotoxicity at 70.5 h stood at 8.65%.

As for `CCc1nnc2n1CCN(C(=O)c1cc(Cl)c[nH]1)C2`, the cytotoxicity at 70.5 h is -1.1%. Then `Cc1ccc(N2CC[C@@H]3O[C@@H](COCc4cccnc4)CC[C@@H]32)nn1`, with -3.24%; and `CN(C)CCOCc1cncc2c1CCN(C(=O)C1CCOCC1)C2`, with -6.54%. Then `O=C([C@H]1CN(CCc2ccccc2)C[C@H]2OCC[C@@H]12)N1CCCO1`, with 6.27%; and `COCCN1CCO[C@H]2[C@H](OCc3cccc(C)n3)CC[C@@H]21`, with -2.63%. With `CNC(=O)c1ccc(C(=O)N2CCCC(n3ccnc3)C2)cn1` (stereo not drawn) the figure was -15.9%; with `CC(C)c1cc(C(=O)N(c2ccc(F)cn2)C2CCOCC2)nn1C`, 3.21%. Regarding `O=S(=O)(c1ccccc1F)N1CCCCC1c1cc[nH]n1` (stereo not drawn), the cytotoxicity at 70.5 h was -5%. Turning to `c1cnnc(N2CCCC2CNCc2nnc(C3CC3)o2)c1` (stereo not drawn), the cytotoxicity at 70.5 h is -3.19%.

On to `Cc1ccnc(NC(=O)c2ccc(Br)o2)c1`, for which the cytotoxicity at 70.5 h was -4.47%. As for `O=c1c(S(=O)(=O)N2CCCC2)cccn1Cc1ccccc1Cl`, the cytotoxicity at 70.5 h is -6.09%. Then `COc1ccc(C2(C(=O)N3CC(c4cccnc4)C3)CC2(C)C)cc1` (stereo not drawn), with -0.294%; and `CC(C(=O)NC(C)(C)C)S(=O)(=O)Cc1noc(C(C)(C)C)n1` (stereo not drawn), with -5.8%. Then `O=C(CN1CCOC(Cn2cncn2)C1)NCc1cccs1` (stereo not drawn), with 29.2%; and `COCCN1CC[C@]2(CN(C(=O)c3cccs3)C[C@H]2C)C1=O`, with -10.6%. With `Cc1nc(C)n(CC2CCCN(CCNC(=O)OC(C)(C)C)C2)n1` (stereo not drawn) the figure was -0.801%. In the case of `CC(=O)N[C@@H](C)C(=O)NCc1cccnc1Oc1ccccc1F`, the cytotoxicity at 70.5 h is -11.6%. Then `CCCc1cc(N2CCCC2Cn2nc(C)nc2C)n2ncnc2n1` (stereo not drawn), with -0.261%. Take `COc1c(CNCCc2c[nH]c3cc(F)ccc23)c(C)nn1C`: the cytotoxicity at 70.5 h worked out at 3.85%.
